Measurements reported in publication PMC3310947 (Chemical biology & drug design, 2012).

Tests used:
[1] = molecular target: T1, mouse Dvl1 PDZ domain (mDvl1 residues 247-341) (Mus musculus, UniProt P51141, C338A); experiment: […]-HSQC NMR chemical shift titration; type: binding
T1 sequence (P51141 247-341 C338A): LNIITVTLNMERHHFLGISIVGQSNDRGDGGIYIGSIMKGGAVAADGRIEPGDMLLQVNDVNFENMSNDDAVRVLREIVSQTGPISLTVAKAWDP

[2] = molecular target: T1, mouse Dvl1 PDZ domain (mDvl1 residues 247-341); experiment: fluorescence polarization competition with Rox-DprC; type: binding

SMILES	Kd [1] [µM]	Ki [2] [µM]
Cc1ccc(C[C@H](NC(=O)c2cccc(C#N)c2)C(=O)N[C@@H](CC(C)C)C(=O)O)cc1 [J01-012]	1.83	
Cc1ccc(C[C@H](NC(=O)c2cccc(C)c2)C(=O)N[C@@H](CC(C)C)C(=O)O)cc1 [J01-015]	2.96	3.5 ± 0.21
Cc1ccc(C[C@H](NC(=O)c2cccc(F)c2)C(=O)N[C@@H](CC(C)C)C(=O)O)cc1 [J01-007]	2.27	4.2 ± 0.46

More lines, now with the values ahead:

Kd [1] [µM]	Ki [2] [µM]	SMILES
7.67		CC(C)C[C@H](NC(=O)[C@H](Cc1ccccc1)NC(=O)c1cccc(F)c1)C(=O)O [J02-001]
3.49		CC(C)C[C@H](NC(=O)[C@H](Cc1ccccc1)NC(=O)c1ccc(F)cc1)C(=O)O [J02-002]
	1.5 ± 0.52	Cc1ccc(C[C@H](NC(=O)c2cc(C)c(F)c(F)c2)C(=O)N[C@@H](CC(C)C)C(=O)O)cc1 [J01-017a]
